Test results: PubChem BioAssay (NCI)
“And” between values parts separate entries of the source, which are not always exact repeats. Equal entries are not always repeated.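 96-well plates; 48 h exposure; 5 concentrations. Endpoints by linear interpolation between flanking doses. Not reached: highest tested concentration assigned. GI50 is the concentration that inhibits growth by half. TGI is the concentration that stops growth completely.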

Columns and labels:
Assay in all cases: NCI-60 cell line screen, 48 h
OVCAR-3 ovarian = system: OVCAR-3 ovarian
OVCAR-5 ovarian = system: OVCAR-5 ovarian
SK-MEL-2 melanoma = system: SK-MEL-2 melanoma
SK-MEL-28 melanoma = system: SK-MEL-28 melanoma
TK-10 renal = system: TK-10 renal
UACC-257 melanoma = system: UACC-257 melanoma
BT-549 breast = system: BT-549 breast
DU-145 prostate = system: DU-145 prostate
MOLT-4 leukemia = system: MOLT-4 leukemia
MCF7 breast = system: MCF7 breast

Row | Compound | TGI (OVCAR-3 ovarian) | TGI (OVCAR-5 ovarian) | TGI (SK-MEL-2 melanoma) | TGI (SK-MEL-28 melanoma) | TGI (TK-10 renal) | TGI (UACC-257 melanoma) | GI50 (BT-549 breast) | TGI (BT-549 breast) | GI50 (DU-145 prostate) | TGI (DU-145 prostate) | GI50 (MOLT-4 leukemia) | TGI (MOLT-4 leukemia) | GI50 (OVCAR-3 ovarian) | GI50 (OVCAR-5 ovarian) | GI50 (SK-MEL-2 melanoma) | GI50 (SK-MEL-28 melanoma) | GI50 (TK-10 renal) | GI50 (UACC-257 melanoma) | GI50 (MCF7 breast) | TGI (MCF7 breast)
1 | COc1cc(C(Cc2ccccc2)NC(C)=O)oc(=O)c1 (configuration not stated) | > 100 µM | > 100 µM | > 100 µM | > 100 µM | > 100 µM | > 100 µM | – | – | – | – | – | – | – | – | – | – | – | – | – | –
2 | [Cl][Hg][c]1cc(Br)cc(Br)c1 | 2.46 µM | 5.65 µM | 5.66 µM | 2.97 µM | 6.35 µM | 21.6 µM | 1.95 µM | 5.47 µM | 2.77 µM | 10.6 µM | 1.77 µM | 5.41 µM | 1.19 µM | 2.8 µM | 1.97 µM | 1.57 µM | 2.9 µM | 10 µM | – | –
3 | S=C(Nc1ccccc1)N(/N=C/C=C/c1ccccc1)c1nnc(-c2ccccc2)c(-c2ccccc2)n1 | > 100 µM | > 100 µM | > 100 µM | > 100 µM | > 100 µM | > 100 µM | – | – | – | – | – | > 100 µM | – | – | – | – | – | – | – | –
4 | OC[C@H]1C[C@](O)(c2ccc(Cl)cc2)[C@@H](c2ccc(Cl)cc2)O1 | 58.9 µM | 71.7 µM | – | 92.3 µM | 84.3 µM | 44.7 µM | 16.8 µM | 34.6 µM | 22.1 µM | 56.9 µM | 17.6 µM | 60.1 µM | 26.2 µM | 25.9 µM | – | 28.9 µM | 30.5 µM | 21.2 µM | 30 µM | 72.8 µM
5 | O=C(/C=C/c1ccccc1O)c1ccccc1O | > 100 µM | > 100 µM | > 100 µM | > 100 µM | > 100 µM | > 100 µM | – | – | – | – | – | > 100 µM | – | – | – | – | – | – | – | –
6 | Cc1ccc(Cc2c(=O)[nH]nc3ccccc23)cc1 | > 100 µM | > 100 µM | > 100 µM | > 100 µM | > 100 µM | > 100 µM | – | – | – | – | – | > 100 µM | – | – | – | – | – | – | – | –
7 | CC(C)c1ccc2c(c1)CC[C@@H]1[C@@](C)(C(=O)O)CCC[C@]21C | 13.8 µM | 25.6 µM | 16.1 µM | 22.3 µM | – | 3.86 µM | 1.47 µM | 4.59 µM | 4.39 µM | 19.6 µM | – | – | 1.8 µM | 5.49 µM | 2.91 µM | 5.8 µM | – | 0.33 µM | – | –
8 | Cc1nc2c(-c3cnc(N)nc3)nc(N3CCOCC3)nc2n1C(C)C | 1.64 µM and 1.92 µM | > 3.48 µM | 0.733 µM and 0.688 µM | 0.524 µM and 3.51 µM | 0.6 µM and 0.505 µM | – | – | 2.22 µM | – | > 100 µM | 0.297 µM and 0.197 µM | > 59.3 µM | – | – | – | – | – | – | 0.0876 µM and 0.0298 µM | > 100 µM
9 | COC(=O)c1cc2c(s1)C(=O)c1ccccc1-2 | > 100 µM | > 100 µM | > 100 µM | > 100 µM | > 100 µM | > 100 µM | – | – | – | – | – | > 100 µM | – | – | – | – | – | – | – | –
10 | COC(=O)C(=Cc1cc(OC)ccc1OC)C(=O)OC | 50.6 µM | 61.5 µM | 50.1 µM | 82.9 µM | 97.4 µM | 35.1 µM | – | – | – | – | – | > 100 µM | – | – | – | – | – | – | – | –
